One series addresses human GPR119 (Homo sapiens (Human), UniProt Q8TDV5). The series is described as follows: AlphaScreen cAMP assay in Min-6/hGPR119 cells (GPR119 activation, intracellular cAMP). It is filed as cell-based. To be noted: MIN6 cells stably transfected with human GPR119; 45 minutes' incubation at RT; AlphaScreen cAMP Assay Kit. In a few lines: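 MIN6 cells stably expressing human GPR119 plated 10000 cells/well and held 24 h at 37° C. Compounds applied in stimulating buffer, pH 7.4, with 0.5 mM IBMX, 0.1% BSA, 1% DMSO final, for 45 min at RT. Intracellular cAMP read by AlphaScreen.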
In general terms: Alpha assays give light when donor and acceptor beads are brought close together.

A word on the melting point: it is the temperature of the solid-liquid transition. Broadly, the EC50 is the concentration at which the effect is half-maximal.

Chain of human GPR119 (Q8TDV5 whole entry): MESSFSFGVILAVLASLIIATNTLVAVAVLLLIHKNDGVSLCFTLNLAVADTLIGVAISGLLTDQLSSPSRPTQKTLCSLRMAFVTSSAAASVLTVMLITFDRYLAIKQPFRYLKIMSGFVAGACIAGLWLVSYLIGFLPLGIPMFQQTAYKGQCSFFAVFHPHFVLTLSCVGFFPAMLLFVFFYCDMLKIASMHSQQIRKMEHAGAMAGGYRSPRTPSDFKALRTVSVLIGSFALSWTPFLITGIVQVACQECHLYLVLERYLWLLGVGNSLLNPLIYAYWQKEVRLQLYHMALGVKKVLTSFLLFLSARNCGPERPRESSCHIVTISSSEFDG

Regarding `CC1CC(=O)NN=C1c1ccc2nc(-c3cccs3)oc2c1` (centres unmarked) [Example 106, 5-methyl-6-(2-thiophen-2-yl-benzoxazol-6-yl)-4,5-dihydro-2H-pyridazin-3-one], the melting point is 222 °C. Also, the EC50 at human GPR119 stood at 120 nM.

Molecule `CC1CC(=O)NN=C1c1ccc2nc(-c3ccco3)oc2c1` (centres unmarked) [Example 108, 5-methyl-6-(2-furan-2-yl-benzoxazol-6-yl)-4,5-dihydro-2H-pyridazin-3-one] gave a melting point of 209 °C. On human GPR119, this molecule had an EC50 of 346 nM.

`CC1CC(=O)NN=C1c1ccc2nc(-c3ccc(N)nc3)oc2c1` (centres unmarked) [Example 109, 6-[2-(6-amino-pyridin-3-yl)-benzoxazol-6-yl]-5-methyl-4,5-dihydro-2H-pyridazin-3-one] had a melting point of 293 °C. Also, on human GPR119, the EC50 was 1410 nM.

Consider `CC1CC(=O)NN=C1c1ccc2nc(-c3cccnc3)oc2c1` (centres unmarked) [Example 110, 5-methyl-6-(2-pyridin-3-yl-benzoxazol-6-yl)-4,5-dihydro-2H-pyridazin-3-one], for which the melting point worked out at 218 °C. Also, the EC50 at human GPR119 came out at 4540 nM.

The molecule `CC1CC(=O)NN=C1c1ccc2nc(N3CCSCC3)oc2c1` (centres unmarked) [Example 113, 5-methyl-6-(2-thiomorpholin-4-yl-benzoxazol-6-yl)-4,5-dihydro-2H-pyridazin-3-one] showed a melting point of 218 °C. Further, the EC50 at human GPR119 was 1900 nM.

In the case of `CCOC(=O)N1CCN(c2nc3ccc(C4=NNC(=O)CC4C)cc3o2)CC1` (centres unmarked) [Example 114, ethyl 4-[6-(4-methyl-6-oxo-1,4,5,6-tetrahydro-pyridazin-3-yl)-benzoxazol-2-yl]-piperazine-1-carboxylate], the melting point came to 239 °C. The same molecule displayed an EC50 at human GPR119 of 2290 nM.

Turning to `CC1CC(=O)NN=C1c1ccc2nc(N3CCCCC3)oc2c1` (centres unmarked) [Example 115, 5-methyl-6-(2-piperidin-1-yl-benzoxazol-6-yl)-4,5-dihydro-2H-pyridazin-3-one], the melting point came out at 235 °C. Moreover, the response at human GPR119 was half-maximal at 1130 nM (EC50).

With `CC1CC(=O)NN=C1c1ccc2nc(N3CCOCC3)oc2c1` (centres unmarked) [Example 116, 5-methyl-6-(2-morpholine-1-yl-benzoxazol-6-yl)-4,5-dihydro-2H-pyridazin-3-one], the melting point came to 209 °C. This molecule registered an EC50 on human GPR119 of 3450 nM.

`CC1CC(=O)NN=C1c1ccc2nc(N3CCNCC3)oc2c1` (centres unmarked) [Example 117, 5-methyl-6-(2-piperazin-1-yl-benzoxazol-6-yl)-4,5-dihydro-2H-pyridazin-3-one] displayed a melting point of 213 °C. Further, on human GPR119, the EC50 stood at 9390 nM.

Molecule `CC1CC(=O)NN=C1c1ccc2nc(-c3ccc(Cl)nc3Cl)oc2c1` (centres unmarked) [Example 120, 6-[2-(2,6-dichloro-pyridin-3-yl)-benzoxazol-6-yl]-5-methyl-4,5-dihydro-2H-pyridazin-3-one] displayed a melting point of 268 °C. Besides, the EC50 at human GPR119 worked out at 1340 nM.

`CC1CC(=O)NN=C1c1ccc2nc(-c3ccc(N4CCOCC4)nc3Cl)oc2c1` (centres unmarked) [Example 121, 6-[2-(2-chloro-6-morpholin-4-yl-pyridin-3-yl)-benzoxazol-6-yl]-5-methyl-4,5-dihydro-2H-pyridazin-3-one] registered a melting point of 236 °C. Moreover, the EC50 at human GPR119 was determined as 379 nM.

`CCC1CC(=O)NN=C1c1ccc2nc(-c3ccc(OCCN4CCC5(CCCCC5)CC4)cc3)oc2c1` (centres unmarked) [Example 245, 6-(2-{4-[2-(3-aza-spiro[5.5]undec-3-yl)-ethoxy]-phenyl}-benzoxazol-6-yl)-5-ethyl-4,5-dihydro-2H-pyridazin-3-one] yielded an EC50 on human GPR119 of 434 nM.

Turning to `CCC1CC(=O)NN=C1c1ccc2nc(-c3ccc(OCCN4C[C@@H](C)O[C@@H](C)C4)cc3)oc2c1` (stereo partly drawn) [Example 246, 6-(2-{4-[2-(cis-2,6-dimethyl-morpholin-4-yl)-ethoxy]-phenyl}-benzoxazol-6-yl)-5-ethyl-4,5-dihydro-2H-pyridazin-3-one], a half-maximal response at human GPR119 (EC50) required 54 nM.

In turn, `CCC1CC(=O)NN=C1c1ccc2nc(-c3ccc(OCCN4CCSCC4)cc3)oc2c1` (centres unmarked) [Example 247, 5-ethyl-6-{2-[4-(2-thiomorpholin-4-yl-ethoxy)-phenyl]-benzoxazol-6-yl}-4,5-dihydro-2H-pyridazin-3-one] displayed an EC50 on human GPR119 of 62 nM.

The molecule `CCC1CC(=O)NN=C1c1ccc2nc(-c3ccc(OCCN4CCC(F)CC4)cc3)oc2c1` (centres unmarked) [Example 248, 5-ethyl-6-(2-{4-[2-(4-fluoro-piperidin-1-yl)-ethoxy]-phenyl}-benzoxazol-6-yl)-4,5-dihydro-2H-pyridazin-3-one] returned an EC50 at human GPR119 of 159 nM.

For the molecule `CCCN(CCOc1ccc(-c2nc3ccc(C4=NNC(=O)CC4CC)cc3o2)cc1)C(C)C` (centres unmarked) [Example 249, 5-ethyl-6-(2-{4-[2-(isopropyl-propyl-amino)-ethoxy]-phenyl}-benzoxazol-6-yl)-4,5-dihydro-2H-pyridazin-3-one], at human GPR119, the EC50 amounted to 58 nM.

On to `CCC1CC(=O)NN=C1c1ccc2nc(-c3ccc(OC(C)CO)cc3)oc2c1` (centres unmarked) [Example 251, 5-ethyl-6-{2-[4-(2-hydroxy-1-methyl-ethoxy)-phenyl]-benzoxazol-6-yl}-4,5-dihydro-2H-pyridazin-3-one], for which, on human GPR119, the EC50 was determined as 296 nM.

The molecule `COC(=O)c1cccc(-c2nc3ccc(-c4n[nH]c(=O)cc4C)cc3o2)c1` [Example 254, methyl 3-[6-(4-methyl-6-oxo-1,6-dihydro-pyridazin-3-yl)-benzoxazol-2-yl]-benzoate] returned an EC50 on human GPR119 of 8950 nM.

In the case of `Cc1cc(=O)[nH]nc1-c1ccc2nc(-c3ccc(C(=O)O)cc3)oc2c1` [Example 255, 4-[6-(4-methyl-6-oxo-1,6-dihydro-pyridazin-3-yl)-benzoxazol-2-yl]-benzoic acid], on human GPR119, the response was half-maximal at 7240 nM (EC50).

Turning to `Cc1cc(=O)[nH]nc1-c1ccc2nc(-c3cccs3)oc2c1` [Example 256, 5-methyl-6-(2-thiophen-2-yl-benzoxazol-6-yl)-2H-pyridazin-3-one], at human GPR119, the EC50 was 9380 nM.

At human GPR119, `O=c1ccc(-c2ccc3nc(-c4cccs4)oc3c2)n[nH]1` [Example 257, 6-(2-thiophen-2-yl-benzoxazol-6-yl)-2H-pyridazin-3-one] had an EC50 of 456 nM.

Regarding `CC[C@H]1CC(=O)NN=C1c1ccc2nc(-c3ccc(OCCN(C(C)C)C(C)C)cc3)oc2c1` [Example 258, (S)-6-{2-[4-(2-diisopropylamino-ethoxy)-phenyl]-benzoxazol-6-yl}-5-ethyl-4,5-dihydro-2H-pyridazin-3-one], on human GPR119, a half-maximal response (EC50) required 605 nM.

As for `CC[C@@H]1CC(=O)NN=C1c1ccc2nc(-c3ccc(OCCN(C(C)C)C(C)C)cc3)oc2c1` [Example 259, (R)-6-{2-[4-(2-diisopropylamino-ethoxy)-phenyl]-benzoxazol-6-yl}-5-ethyl-4,5-dihydro-2H-pyridazin-3-one], the EC50 on human GPR119 came to 22 nM.

Regarding `CCC[C@H]1C(=O)NN=C(c2ccc3nc(-c4ccc(OC(C)C)cc4)oc3c2)[C@@H]1C` [Example 260, (4R,5R)-5-methyl-6-{2-[4-(propan-2-yloxy)phenyl]-1,3-benzoxazol-6-yl}-4-propyl-2,3,4,5-tetrahydropyridazin-3-one], on human GPR119, the EC50 came to 24 nM.

Values taken from US8772323B2, “Benzoxazole- and tetrahydrobenzoxazole-substituted pyridazinones as GPR119 agonists” (Boehringer Ingelheim International GmbH, priority 2010, dated 2014).
